This note sets out measurements from ChEMBL document CHEMBL4385652, “Discovery of a novel orally active TRPV4 inhibitor: Part 1. Optimization from an HTS hit” (Bioorg Med Chem, 2019).

Data set [1] is described as follows: physchem. The note with it: 1-octanol/phosphate buffer, pH 7.4.
Data set [2] in a line: in vitro. The note with it: human, pooled liver microsomes. (Liver microsomes are a subcellular fraction often used to study metabolism.)
A short description of data set [3]: in vitro. The note with it: rat, pooled liver microsomes.

Bounds are passed on as bounds.

What is called logD is lipophilicity at a set pH, counting ionised and neutral species. A lower logD goes with a more hydrophilic compound. `COc1cc(OC)cc(C(=O)Nc2nc(C3CC3)c(N3CCN(C)CC3)s2)c1` had a pH-dependent lipophilicity (logD) in data set [1] of 4.

In the case of `COc1cc(OC)cc(C(=O)Nc2nc(-c3cccnc3)c(N3CCN(C)CC3)s2)c1`, the pH-dependent lipophilicity (logD) in data set [1] was determined as 4.1.

For `COc1cc(OC)cc(C(=O)Nc2nc(C3CCC3)c(N3CCN(C)CC3)s2)c1`, in data set [1], the pH-dependent lipophilicity (logD) was found to be 4.6.

As to `COc1cc(OC)cc(C(=O)Nc2nc(-c3ccccc3)c(CCCN3CCN(C)CC3)s2)c1`, in data set [1], the logD was 4.1.

In the case of `COc1cc(OC)cc(C(=O)Nc2nc(-c3ccncc3)c(N3CCN(C)CC3)s2)c1`, the logD in data set [1] turned out to be 4.1.

As usually defined, the CLint scaled is a measure of how fast metabolising enzymes remove a compound, apart from limits set by blood flow. The low end stands for greater metabolic stability, the high end for faster metabolism. For the compound `Cc1c(C(=O)Nc2nc(C3CCC3)c(CCN3CCCCC3)s2)cnn1-c1ccc(F)cc1`, the CLint scaled at 0.75 h, 0.2 µM in data set [2] was 527 mL/min/kg; in data set [3], greater than 1000 mL/min/kg. In data set [1], this compound yielded a logD of 4.1.

Take `Cc1c(C(=O)Nc2nc(C3CCC3)c(N3CCN(C)CC3)s2)cnn1-c1ccc(F)cc1`: in data set [1], the log distribution coefficient (logD) is 4.8.

Regarding `COc1cc(OC)cc(C(=O)Nc2nc(-c3ccccc3)c(CN3CCCCC3)s2)c1`, the log distribution coefficient (logD) in data set [1] was 4.9.

In data set [1], `CN1CCN(c2sc(NC(=O)c3cc(-c4ccccc4)n(C)n3)nc2C2CCC2)CC1` came in with a pH-dependent lipophilicity (logD) of 4.9.

With `Cc1nn(-c2ccc(F)cn2)cc1C(=O)Nc1nc(C2CCC2)c(CCN2CCCCC2)s1`, the intrinsic clearance (CLint scaled) at 0.75 h, 0.2 µM in data set [2] stood at 120 mL/min/kg; in data set [3], 798 mL/min/kg. The compound also returned a log distribution coefficient (logD) in data set [1] of 4.5.

For the compound `COc1cc(OC)cc(C(=O)Nc2nc(-c3ccccc3)c(CCCN3CCOCC3)s2)c1`, the logD in data set [1] worked out at 4.7.

Regarding `Cc1c(C(=O)Nc2nc(C3CCC3)c(N3CCN(C)CC3)s2)cnn1-c1ccc(C#N)cc1`, in data set [1], the logD was determined as 4.

For `Cc1c(C(=O)Nc2nc(C3CCC3)c(N3CCN(C)CC3)s2)cnn1C1CCC(F)(F)CC1`, the pH-dependent lipophilicity (logD) in data set [1] worked out at 4.3.

Turning to `COc1cc(OC)cc(C(=O)Nc2nc(-c3ccccn3)c(N3CCN(C)CC3)s2)c1`, in data set [1], the log distribution coefficient (logD) came to 3.7.

Compound `COc1cc(OC)cc(C(=O)Nc2nc(-c3ccccc3)c(C3CCN(C)CC3)s2)c1` displayed a log distribution coefficient (logD) in data set [1] of 3.6. The logD values of the last two compounds are within 0.2 log units of each other.

In data set [1], `COc1cc(OC)cc(C(=O)Nc2nc(-c3ccccc3)c(CCCN(C)C)s2)c1` showed a log distribution coefficient (logD) of 3.5.

As for `COc1cc(OC)cc(C(=O)Nc2nc(-c3ccccc3)c(CCCN3CCCCC3)s2)c1`, the logD in data set [1] is 4.1.
